According to US20060040870A1, “Enhancement of apoptosis by caspase-9 inhibitors” (priority 2004, published 2006):
The star is where a group is joined. Cbz = O=C(OCc1ccccc1)*; CH2F = FC*

Legend:
[1] = test system: CD19+ B-cell precursors; experiment: Annexin V staining of sorted cord blood-derived CD19+ B-cell precursors removed from MS-5 stroma; format: cell-based, human; settings: cultured 18 hours, DMSO control 46.5 ± 1.4, Time 0 1.5
Experimental: Normal B-lineage cells. CD19+ B-lineage cells were derived from CD34+ human cord blood stem cells plated on the murine stromal cell line MS-5 (Itoh Exp Hematol. 1989;17:145-153). MS-5 stromal cells were kindly provided by Dr. Paul Kincade (University of Oklahoma Medical Research Foundation), following permission from Professor K. John Mori (Niigata University, Japan). FACS-purified CD34+/CD38+/lineage—cord blood hematopoietic stem cells were plated onto confluent, non-irradiated MS-5 stromal cells in 96-well flat-bottom plates (200 cells/well) containing Minimal Essential Medium supplemented with 10% FBS. Stem cell factor and G-CSF were added at 10 ng/ml (twice weekly) to enhance the emergence of CD19+ B-lineage cells (Nishihara Eur J Immunol. 1998;28:855-864; Ohkawara Leukemia. 1998;12:764-771). […] Wells were then pooled, stained with PE-conjugated anti-CD 19 + propidium iodide (PI), and sorted on a FACSVantage (BD Immunocytometry Systems, San Jose, Calif.). Cord blood CD34+/CD38+/lineage—cells were provided by Valerie McCullar and Dr. Jeff Miller of the University of Minnesota Cancer Center in accordance with the University of Minnesota Institutional Review Board on Human Subjects.
Flow cytometry. Quantitation of apoptotic events was conducted using a FACS Calibur (BD Immunocytometry Systems). […]

[2] = test system: CD33+ myeloid cells; experiment: Annexin V staining of sorted cord blood-derived CD33+ myeloid cells removed from MS-5 stroma; format: cell-based, human; settings: cultured 18 hours, DMSO control 27.9 ± 3.9, Time 0 <10
[3] = test system: leukemia/lymphoma cells; experiment: Pro-apoptotic activity of caspase inhibitor sequences (Table 2); format: cell-based; design: key: “−” is no activity; ++++ is maximum activity
Source text: Caspases are constitutively express in cells, and are usually in their pro-form. In response to an incident, such as irradiation or chemotherapy, the pro-form of the caspase is converted into the activated state. Certain compounds are known that can inhibit caspases. For example, the pan-caspase (PCi) VAD can block all caspases. […] For example, C2i inhibits caspase-2. This particular inhibitor is very dose dependent.

[4] = test system: BLIN-3 cells; experiment: Apoptosis by Annexin V staining and flow cytometry, BLIN-3; format: cell-based, human; settings: BLIN-3 removed from adherent fibroblasts, 50 μM
Experimental: (§1) Flow cytometry. Quantitation of apoptotic events was conducted using a FACS Calibur (BD Immunocytometry Systems). All analyses were conducted on cells with lymphoid light scatter characteristics (i.e., low to medium forward scatter and low 90° side scatter).
(§2) iii. Annexin V. FITC-labeled Annexin V (BD Pharmingen, San Diego, Calif.) was used to detect external phosphatidylserine residues appearing on the external surface of early apoptotic cells (Koopman Blood. 1994;84:1415-1420). Cells were stained according to the manufacturers recommendations.
(§3) General experimental strategy. BLIN cell lines were removed from fibroblast monolayers, washed once and resuspended to 7.5×10^5/ml in X-VIVO 10. Two hundred μL of resuspended cells were added to 96-well flat-bottom microtiter plates (ISC Bioexpress, Kaysville, Vt.), followed by 0.5-1.0 μL of caspase inhibitors in DMSO. An identical volume of DMSO alone was added to separate wells as a vehicle control. This final DMSO concentration of 0.25-0.5% vol/vol had no adverse affect on any of the BLIN cell lines. At the indicated times the entire content of individual wells was harvested and stained in the fluorescent protocols described above.
The inventors carried out experiments to test the influence of specific amino acid substitutions on the proapoptotic activity Z-LEHD-fmk. Cells were cultured for 24 hours with various μM concentrations of Z-LEDH-fmk or single amino acid substitution of the parent peptide. All values in the following Table 3 represent the percentage of total Annexin V+ cells (PI+ and PI−) minus the percentage present in culture with DMSO alone (BLIN-2=3%; BLIN-3+7%; BLIN4L=5%).

[5] = test system: BLIN-3 cells; experiment: Loss of mitochondrial transmembrane potential (TMRE) and YO-PRO permeability in BLIN-3; format: cell-based, human; settings: BLIN-3 removed from adherent fibroblasts, 50 μM, compared to DMSO
Experimental: Numbers in the histograms indicate the percentage of PI^- cells that underwent a loss of Δψm. Numbers in the contour plots indicate the percentage of Annexin V^+/PI^- cells. […] Numbers in the contour plots indicate the percentage of YO^- PRO^+/PI^- cells. Numbers in the histograms indicate the percentage of PI^- cells that underwent a loss of Δψm. Flow cytometry. Quantitation of apoptotic events was conducted using a FACS Calibur (BD Immunocytometry Systems). All analyses were conducted on cells with lymphoid light scatter characteristics (i.e., low to medium forward scatter and low 90° side scatter). i. Mitochondrial transmembrane potential (Δψm). The cationic lipophilic fluorescent dye tetramethylrhodamine, ethyl ester, perchlorate (TMRE) was purchased from Molecular Probes, Inc. (Eugene, Oreg.). TMRE has a high degree of membrane permeability and accumulates into mitochondria in accord with the Nernstian equation (Farkas Biophys J. 1989;56:1053-1069). Cells were washed once and re-suspended to 0.5-1.0×10^6/ml in X-VIVO 10. TMRE was added to a final concentration of 50 nM and the cells were incubated in the dark at 37° C. for 15 minutes. […] ii. YO-[…]. The green fluorescent DNA intercalant dye YO-PRO-1 (Idziorek J Immunol Methods. 1995;185:249-258) was purchased from Molecular Probes as the Vybrant Apoptosis Assay Kit #4. […]

[6] = test system: PARP (caspase-3/caspase-7 substrate); experiment: Western blotting of PARP cleavage in BLIN-3 and BLIN-4L; format: cell-based, human; settings: overnight incubation of BLIN-3 and BLIN-4L cells, 50 μM
Experimental: Western blotting. This method was conducted essentially as previously described.^20 The antibodies used were: rabbit anti-caspase-2 (catalog # sc-625, Santa Cruz Biotechnology Inc., Santa Cruz, Calif.), rabbit anti-caspase-3 (catalog # 9661, Upstate Cell Signaling Solutions, Waltham, Mass.), rabbit anti-caspase-6 (catalog # 9761, Upstate), rabbit anti-caspase-9 (catalog # 9502, Upstate), mouse anti-PARP (catalog # 556494, Pharmingen), and rabbit anti-Bid (catalog # AF846, R&D Systems). The antibodies to caspase-2 and caspase-9 were generated to the procaspase isoforms, whereas the antibodies to caspase-3 and caspase-6 were generated to cleavage products.
As expected, inclusion of 50 μM PCi had no effect. The degree of PARP cleavage in the presence of C9i (greater in BLIN-3 than BLIN-4L) correlated with the percentage of Annexin V+ cells (FIG. 3).

[7] = test system: BLIN cell lines; experiment: Enhancement of apoptosis in BLIN cell lines (flow cytometry); format: cell-based, human; settings: BLIN cell lines
Experimental: as §1
i. Mitochondrial transmembrane potential (Δψm). The cationic lipophilic fluorescent dye tetramethylrhodamine, ethyl ester, perchlorate (TMRE) was purchased from Molecular Probes, Inc. (Eugene, Oreg.). TMRE has a high degree of membrane permeability and accumulates into mitochondria in accord with the Nernstian equation (Farkas Biophys J. 1989;56:1053-1069). Cells were washed once and re-suspended to 0.5-1.0×10^6/ml in X-VIVO 10. TMRE was added to a final concentration of 50 nM and the cells were incubated in the dark at 37° C. for 15 minutes. Cells were then washed 2× in PBS, resuspended in PBS containing 2 μg/ml of propidium iodide (PI), and immediately analyzed. The protonophore […] (50 μM, CCCP, Sigma) was used as a positive control to effect loss of Δψm in 100% of cells.
ii. YO-PRO-1. The green fluorescent DNA intercalant dye YO-PRO-1 (Idziorek J Immunol Methods. 1995;185:249-258) was purchased from Molecular Probes as the Vybrant Apoptosis Assay Kit #4. Dual staining with YO-PRO and PI allows for the detection of early apoptotic cells (YO-PRO+/PI−) that have undergone initial changes in permeability to small molecules. Cells were stained according to the manufacturers recommendations.
as §2, §3

[8] = test system: caspase-9 deficient BLIN-4L; experiment: Apoptotic sensitivity of BLIN-4L made deficient in caspase-9 by siRNA, Annexin V; settings: Annexin V+ events minus DMSO

Z-VAD-fmk [PCi, reference compound]
percentage of total Annexin V+ cells (PI+ and PI−), mean ± SD [1]: 39.5 ± 1.8 % | percentage of total Annexin V+ cells (PI+ and PI−), mean ± SD [2]: 18.0 ± 3.9 % | Pro-apoptotic Activity (after 24 hours) [3]: − | appearance of Annexin V+ cells [4]: completely blocked | loss of Δψm (TMRE) [5]: did not prevent loss of Δψm | cleavage of the caspase-3/caspase-7 substrate PARP [6]: had no effect | enhancement of apoptosis [7]: did not enhance apoptosis

CN[C@@H]1C[C@H]2O[C@@](C)([C@@H]1OC)n1c3ccccc3c3c4c(c5c6ccccc6n2c5c31)C(=O)NC4 [staurosporine]
apoptotic response of caspase-9 deficient BLIN-4L compared with control siRNA treated cells [8]: significantly more sensitive

Cbz-VEID-CH2F [C6i, reference compound]
Pro-apoptotic Activity (after 24 hours) [3]: −

LEED (printed: Leu-Glu-Glu-Asp) [C9i/H > E, variant of Z-LEHD-fmk, Leu-Glu-Glu-Asp]
Pro-apoptotic Activity (after 24 hours) [3]: −

Cbz-VDVAD-CH2F [C2i, reference compound]
Pro-apoptotic Activity (after 24 hours) [3]: −

Z-DEVD-fmk [C3i, reference compound]
Pro-apoptotic Activity (after 24 hours) [3]: −

LEAD [C9i/H > A]
Pro-apoptotic Activity (after 24 hours) [3]: −

LEHD [C91/ΔFMK]
Pro-apoptotic Activity (after 24 hours) [3]: −

WEHD (printed: Trp-Glu-His-Asp) [C9i/L > W, variant of Z-LEHD-fmk, Trp-Glu-His-Asp]
Pro-apoptotic Activity (after 24 hours) [3]: ++++

COc1cc([C@@H]2c3cc4c(cc3[C@@H](O[C@@H]3O[C@@H]5CO[C@@H](C)O[C@H]5[C@H](O)[C@H]3O)[C@H]3COC(=O)[C@H]23)OCO4)cc(OC)c1O [etoposide]
apoptotic response of caspase-9 deficient BLIN-4L compared with control siRNA treated cells [8]: no difference
